Assay results published in patent publication EP2958918B1, “DIHYDROPTERIDINONES II” (Boehringer Ingelheim International GmbH, priority 2013, dated 2014).

Experiments:
Aβ42 = Aβ42 cellular assay: inhibition of Aβ42 production in H4 neuroglioma cells stably expressing human APP695, electrochemiluminescence (Meso Scale Discovery) on supernatant; assay type: cell-based; conditions: 22 hours incubation, tested range 30 µM to 0.1 nM
Method: (§1) Cells were plated out to near confluency. The compounds to be tested were received as 10 mM stocks in 100% DMSO. A dilution series was initially generated in 100% DMSO and then diluted 200-fold in cell culture media such that the tested concentration range was 30 µM to 0.1 nM and the final DMSO concentration was 0.5%. The diluted compounds were incubated with the cells for 22 hours in an incubator at 37°C and 5% CO2. Aβ42 as well as Aβ total levels were then measured post-incubation from the supernatant of the cells. Aβ42 levels were determined using a specific electrochemiluminescence assay provided by Meso Scale Discovery (Catalog # L21CA-1) according to the manufacturer's protocol. Aβ total levels were likewise determined using a specific electrochemiluminescence assay provided by Meso Scale Discovery (Catalog # L21ZA-1) according to the manufacturer's protocol.
(§2) In order to absolutely define the described compounds as modulators of y-Secretase as opposed to simply inhibitors of γ-Secretase, measurements of not only Aβ42 but also Aβ total are performed.

Aβ total = Aβ total cellular assay: inhibition of Aβ total production in H4 neuroglioma cells stably expressing human APP695, electrochemiluminescence (Meso Scale Discovery) on supernatant; used for the ratio Aβ total IC50 / Aβ42 IC50; assay type: cell-based; conditions: higher ratio = more specific inhibition of Aβ42
Method: as §1, §2

Row | Compound | IC50 (Aβ42) [nM] | Ratio Aß(total)/Aß42 (Aβ total)
1 | COc1cc(Nc2ncc3c(n2)N(C)C2(CC2)C(=O)N3c2ccc(F)cc2)ccc1-n1cnc(C)c1 [Example 46] | 98 | > 306
2 | COc1cc(Nc2ncc3c(n2)N(C)C2(CC2)C(=O)N3C2COC2)ccc1-n1cnc(C)c1 [Example 47] | 191 | 98
3 | COc1cc(Nc2ncc3c(n2)N(C)C2(CCOC2)C(=O)N3c2ccc(C(F)(F)F)cn2)ccc1-n1cnc(C)c1 (centres unmarked) [Example 48] | 389 | 22
4 | COc1cc(Nc2ncc3c(n2)N(C)C2(CC4CCC2C4)C(=O)N3C)cnc1-n1cnc(C)c1 (centres unmarked) [Example 49] | 95 | 69
5 | COc1cc(Nc2ncc3c(n2)N(C)C2(CC2)C(=O)N3CC(F)(F)F)cnc1-n1cnc(C)c1 [Example 50] | 204 | > 147
6 | COc1cc(Nc2ncc3c(n2)N(C)C2(CC2)C(=O)N3CC(F)(F)F)ccc1-n1ccnc1C [Example 51] | 59 | 126
7 | COc1cc(Nc2ncc3c(n2)N(C)C2(CC2)C(=O)N3CC(F)F)ccc1-n1cnc(C)c1 [Example 52] | 110 | 61
8 | COc1cc(Nc2ncc3c(n2)N(C)C2(CCCC2)C(=O)N3C)ccc1-n1cnc(C)c1 [Example 53] | 40 | 132
9 | COc1cc(Nc2ncc3c(n2)N(C)C2(CCCC2)C(=O)N3CC(F)(F)F)ccc1-n1cnc(C)c1 [Example 54] | 22 | 116
10 | COc1cc(Nc2nc(CC(F)(F)F)c3c(n2)N(C)C2(CC2)C(=O)N3C)ccc1-n1cnc(C)c1 [Example 55] | 76 | 103
